Experimental data from ChEMBL document CHEMBL1201862, “PubChem BioAssay data set” (2004).
Active and inactive are the calls of the source. Rule as the data show it, for most assays here: actives have a measured IC50 and inactives only a lower limit.

molecular target: T1, Sentrin-specific protease 8 (Homo sapiens, UniProt Q96LD8); experiment: not given; format: functional; settings: not given
T1 sequence (Q96LD8 whole entry): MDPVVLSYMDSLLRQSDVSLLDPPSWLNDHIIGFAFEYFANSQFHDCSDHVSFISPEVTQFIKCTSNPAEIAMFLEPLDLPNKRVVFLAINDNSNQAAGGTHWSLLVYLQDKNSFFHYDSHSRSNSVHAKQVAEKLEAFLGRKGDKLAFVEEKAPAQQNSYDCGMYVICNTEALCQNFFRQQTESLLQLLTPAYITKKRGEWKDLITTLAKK
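For AC50 in this document: cells exposed to compound for roughly 70 hours or longer before luminescence read.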

| Structure (SMILES) | IC50 |
| --- | --- |
| O=C1/C(=C/c2cccc(F)c2)Oc2cc(O)ccc21 | 2.29 µM (active) |
| COc1cc(OC)cc(C(=O)Nc2ccc(Nc3ccccc3)cc2)c1 | 22.5 µM (active) |
| Cc1nc(Nc2ccc(C(=O)O)cc2)sc1-c1ccccc1 | 1.88 µM (active) |

molecular target: T2, Sentrin-specific protease 6 (Homo sapiens, UniProt Q9GZR1); experiment: not given; format: functional; settings: not given
T2 sequence (Q9GZR1 whole entry): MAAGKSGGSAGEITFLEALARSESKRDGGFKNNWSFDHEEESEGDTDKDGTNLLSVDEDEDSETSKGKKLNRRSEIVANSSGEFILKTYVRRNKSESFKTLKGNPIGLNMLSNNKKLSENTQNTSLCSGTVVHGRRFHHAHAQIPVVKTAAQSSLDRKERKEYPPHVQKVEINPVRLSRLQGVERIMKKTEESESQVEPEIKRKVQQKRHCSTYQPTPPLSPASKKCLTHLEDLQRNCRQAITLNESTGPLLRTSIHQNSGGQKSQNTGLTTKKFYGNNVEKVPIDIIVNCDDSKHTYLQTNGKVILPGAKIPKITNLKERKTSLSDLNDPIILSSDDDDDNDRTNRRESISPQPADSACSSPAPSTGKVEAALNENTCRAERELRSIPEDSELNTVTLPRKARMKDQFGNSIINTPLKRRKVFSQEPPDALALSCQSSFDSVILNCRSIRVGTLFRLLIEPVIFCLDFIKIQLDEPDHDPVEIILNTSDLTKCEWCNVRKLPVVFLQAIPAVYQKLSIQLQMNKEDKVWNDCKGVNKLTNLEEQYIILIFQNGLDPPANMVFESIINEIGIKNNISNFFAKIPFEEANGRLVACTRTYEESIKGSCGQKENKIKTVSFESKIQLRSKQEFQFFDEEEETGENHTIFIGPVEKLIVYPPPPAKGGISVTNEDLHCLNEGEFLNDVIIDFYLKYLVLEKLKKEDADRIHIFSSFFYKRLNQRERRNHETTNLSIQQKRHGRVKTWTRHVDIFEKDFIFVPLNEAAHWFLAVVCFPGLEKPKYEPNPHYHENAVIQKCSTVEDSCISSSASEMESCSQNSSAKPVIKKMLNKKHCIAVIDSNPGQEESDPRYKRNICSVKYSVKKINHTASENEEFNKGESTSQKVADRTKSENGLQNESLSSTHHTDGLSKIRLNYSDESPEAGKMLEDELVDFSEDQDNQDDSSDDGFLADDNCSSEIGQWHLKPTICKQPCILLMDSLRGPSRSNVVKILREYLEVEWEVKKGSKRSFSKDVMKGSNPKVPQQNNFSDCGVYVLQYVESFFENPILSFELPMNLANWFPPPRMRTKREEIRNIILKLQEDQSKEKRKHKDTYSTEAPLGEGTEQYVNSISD

| IC50 | Structure (SMILES) |
| --- | --- |
| 15.9 µM (active) | O=C1/C(=C/c2cccc(F)c2)Oc2cc(O)ccc21 |
| 0.787 µM (active) | Cc1nc(Nc2ccc(C(=O)O)cc2)sc1-c1ccccc1 |

| Structure (SMILES) | IC50 |
| --- | --- |
| COc1cc(OC)cc(C(=O)Nc2ccc(Nc3ccccc3)cc2)c1 | 17.8 µM (active) |

molecular target: T3, Sentrin-specific protease 7 (Homo sapiens, UniProt Q9BQF6); experiment: not given; format: functional; settings: not given
T3 sequence (Q9BQF6 whole entry): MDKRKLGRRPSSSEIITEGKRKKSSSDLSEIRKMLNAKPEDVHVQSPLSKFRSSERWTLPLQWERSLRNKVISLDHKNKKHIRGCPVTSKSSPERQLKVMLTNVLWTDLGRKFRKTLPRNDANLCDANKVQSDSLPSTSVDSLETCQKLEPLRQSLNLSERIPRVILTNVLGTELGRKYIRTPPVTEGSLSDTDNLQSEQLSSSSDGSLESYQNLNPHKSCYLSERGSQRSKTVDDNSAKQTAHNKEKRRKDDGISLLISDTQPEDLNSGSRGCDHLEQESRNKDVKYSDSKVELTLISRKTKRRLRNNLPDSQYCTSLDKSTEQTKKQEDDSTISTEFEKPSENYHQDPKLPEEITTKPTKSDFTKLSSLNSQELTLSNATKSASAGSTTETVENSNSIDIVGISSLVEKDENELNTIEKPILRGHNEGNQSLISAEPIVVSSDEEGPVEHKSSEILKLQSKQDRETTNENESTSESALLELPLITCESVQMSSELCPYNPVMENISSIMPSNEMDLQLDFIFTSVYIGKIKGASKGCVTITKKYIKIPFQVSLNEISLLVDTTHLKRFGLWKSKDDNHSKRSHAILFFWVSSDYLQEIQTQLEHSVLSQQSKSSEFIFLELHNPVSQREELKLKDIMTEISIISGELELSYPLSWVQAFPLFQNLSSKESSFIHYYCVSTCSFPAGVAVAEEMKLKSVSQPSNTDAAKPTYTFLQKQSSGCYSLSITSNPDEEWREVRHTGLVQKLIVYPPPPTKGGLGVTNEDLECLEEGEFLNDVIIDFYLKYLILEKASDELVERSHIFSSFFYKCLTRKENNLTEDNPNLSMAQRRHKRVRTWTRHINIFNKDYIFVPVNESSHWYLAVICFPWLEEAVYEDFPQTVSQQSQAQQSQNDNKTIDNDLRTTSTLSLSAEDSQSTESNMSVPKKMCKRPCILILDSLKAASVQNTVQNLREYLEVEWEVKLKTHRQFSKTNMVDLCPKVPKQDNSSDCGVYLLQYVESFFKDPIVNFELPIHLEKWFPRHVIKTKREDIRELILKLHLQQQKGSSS

| IC50 | Structure (SMILES) |
| --- | --- |
| 6.09 µM (active) | O=C1/C(=C/c2cccc(F)c2)Oc2cc(O)ccc21 |
| 0.797 µM (active) | Cc1nc(Nc2ccc(C(=O)O)cc2)sc1-c1ccccc1 |

| Structure (SMILES) | IC50 |
| --- | --- |
| COc1cc(OC)cc(C(=O)Nc2ccc(Nc3ccccc3)cc2)c1 | 5.27 µM (active) |

tested on: SN12K1; experiment: cells; format: functional; settings: Homo sapiens

| Structure (SMILES) | GI50 |
| --- | --- |
| O=C(O)/C=C/c1c[nH]c(=O)[nH]c1=O | > 500 µM (inactive) |
| Nc1nc(N)c2nc(CNc3ccc(C(=O)NC(CCCNC(=O)c4ccccc4C(=O)O)C(=O)O)cc3)cnc2n1 (centres undefined) | < 0.01 µM (active) |
| CCOC(=O)C(C)N1C(=O)c2ccccc2S1(=O)=O (centres undefined) | > 100 µM (inactive) |
| Cc1c2cnccc2c(C)c2c1c1ccccc1n2CCCCCCCl | 30 µM (inactive) |

tested on: not listed separately; experiment: Luminescence Cell-Based Dose Retest to Confirm Inhibitors of Cancer Stem Cells. [Related pubchem assays (depositor defined):AID2717, AID2721]; format: functional; settings: Homo sapiens

| Structure (SMILES) | AC50 |
| --- | --- |
| COc1cc(OC)cc(C(=O)Nc2ccc(Nc3ccccc3)cc2)c1 | 4.09 µM (active) |

molecular target: T3, Sentrin-specific protease 7; experiment: inhibition of human SENP7 cleavage activity – biochemical, luminescence, SAR follow-up (AID 504497); format: functional; settings: not given

| IC50 | Structure (SMILES) |
| --- | --- |
| 4.4 µM (active) | O=C1/C(=C/c2cccc(F)c2)Oc2cc(O)ccc21 |

tested on: P388; experiment: cells; format: functional; settings: Mus musculus

| Structure (SMILES) | GI50 |
| --- | --- |
| O=C(O)/C=C/c1c[nH]c(=O)[nH]c1=O | > 500 µM (inactive) |
| Nc1nc(N)c2nc(CNc3ccc(C(=O)NC(CCCNC(=O)c4ccccc4C(=O)O)C(=O)O)cc3)cnc2n1 (centres undefined) | < 0.01 µM (active) |
| CCOC(=O)C(C)N1C(=O)c2ccccc2S1(=O)=O (centres undefined) | > 100 µM (inactive) |
| Cc1c2cnccc2c(C)c2c1c1ccccc1n2CCCCCCCl | 1.77 µM (inactive) |

molecular target: T2, Sentrin-specific protease 6; experiment: SAR Analysis of small molecule inhibitors of Sentrin-specific protease 6 (SENP6) using a Luminescent assay. [Related pubchem assays (depositor defined):AID2582, AID2599]; format: functional; settings: not given

| IC50 | Structure (SMILES) |
| --- | --- |
| 12 µM (active) | O=C1/C(=C/c2cccc(F)c2)Oc2cc(O)ccc21 |

molecular target: T4, Caspase-3 (Homo sapiens, UniProt P42574); experiment: SAR Analysis of small molecule inhibitors of Sentrin-specific proteases (SENPs) using a Caspase-3 Selectivity assay. [Related pubchem assays (depositor defined):AID2540, AID2599, AID434973, AID489001]; format: functional; settings: not given
T4 sequence (P42574 whole entry): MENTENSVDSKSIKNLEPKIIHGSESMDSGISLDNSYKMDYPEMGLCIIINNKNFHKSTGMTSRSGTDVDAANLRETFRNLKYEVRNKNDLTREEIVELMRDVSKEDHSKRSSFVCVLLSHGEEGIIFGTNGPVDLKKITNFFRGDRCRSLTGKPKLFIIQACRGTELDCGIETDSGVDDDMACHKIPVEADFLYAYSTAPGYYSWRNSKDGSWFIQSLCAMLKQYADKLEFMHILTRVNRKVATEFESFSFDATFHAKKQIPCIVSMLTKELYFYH

| IC50 | Structure (SMILES) |
| --- | --- |
| 9.25 µM (active) | O=C1/C(=C/c2cccc(F)c2)Oc2cc(O)ccc21 |

molecular target: T4, Caspase-3; experiment: not given; format: functional; settings: not given

| IC50 | Structure (SMILES) |
| --- | --- |
| 18.2 µM (active) | O=C1/C(=C/c2cccc(F)c2)Oc2cc(O)ccc21 |
| 10.9 µM (active) | Cc1nc(Nc2ccc(C(=O)O)cc2)sc1-c1ccccc1 |

| Structure (SMILES) | IC50 |
| --- | --- |
| COc1cc(OC)cc(C(=O)Nc2ccc(Nc3ccccc3)cc2)c1 | 30.3 µM (active) |

molecular target: T1, Sentrin-specific protease 8; experiment: inhibition of human SENP8 cleavage activity – biochemical, luminescence, SAR follow-up (AID 504501); format: functional; settings: not given

| Structure (SMILES) | IC50 |
| --- | --- |
| O=C1/C(=C/c2cccc(F)c2)Oc2cc(O)ccc21 | 15.8 µM (active) |

tested on: P388/ADR; experiment: cells; format: functional; settings: Mus musculus

| Structure (SMILES) | GI50 |
| --- | --- |
| O=C(O)/C=C/c1c[nH]c(=O)[nH]c1=O | > 500 µM (inactive) |
| Nc1nc(N)c2nc(CNc3ccc(C(=O)NC(CCCNC(=O)c4ccccc4C(=O)O)C(=O)O)cc3)cnc2n1 (centres undefined) | < 0.01 µM (active) |
| CCOC(=O)C(C)N1C(=O)c2ccccc2S1(=O)=O (centres undefined) | > 100 µM (inactive) |
| Cc1c2cnccc2c(C)c2c1c1ccccc1n2CCCCCCCl | 22.8 µM (inactive) |
